Patent US7138361B2, “Herbicidal heterocycles” (E. I. du Pont de Nemours and Company, priority 2000, dated 2006)

Columns and labels:
Type in all cases: in vivo
[1] = system: blackgrass (Alopecurus myosuroides); test: Test B postemergence
How it was run: (§1)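 Pre: seeded pots sprayed, chemical in non-phytotoxic solvent/surfactant mix. Post: plants 2–18 cm, 1–4 leaf, same formulation. Greenhouse 13–15 d; visual % control vs untreated, 0–100 scale.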

corn (Zea mays) [2] = test: Test B postemergence
How it was run: as §1

[3] = system: velvetleaf (Abutilon theophrasti); test: Test B postemergence; settings: Rate 125 g/ha, scale 0 to 100, 0 no effect, 100 complete control
How it was run: as §1

[4] = system: wheat (Triticum aestivum); test: Test B postemergence; settings: Rate 125 g/ha, scale 0 to 100, 0 no effect, 100 complete control
How it was run: as §1

wild oat (Avena fatua) = test: Test B postemergence; settings: Rate 125 g/ha, scale 0 to 100, 0 no effect, 100 complete control
How it was run: as §1

Sunflower = test: Test C preemergence; settings: Rate 125 g/ha; scale 0 to 100, 0 no effect, 100 complete control
[5] = system: Surinam grass (Brachiaria decumbens); test: Test C preemergence
How it was run: (§2)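 Herbicidal effect is a visual 0–100 score (100 = complete control) assigned versus untreated plants, 12 to 14 days after spraying in the greenhouse. Test compounds were applied in a non-phytotoxic, surfactant-containing solvent.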

[6] = system: bermudagrass (Cynodon dactylon); test: Test C preemergence
How it was run: as §2

corn (Zea mays) [7] = test: Test C preemergence
How it was run: as §2

[8] = system: crabgrass (Digitaria sanguinalis); test: Test C preemergence
How it was run: as §2

[9] = system: giant foxtail (Setaria faberii); test: Test C preemergence
How it was run: as §2

[10] = system: goosegrass (Eleusine indica); test: Test C preemergence
How it was run: as §2

[11] = system: johnsongrass (Sorghum halepense); test: Test C preemergence
How it was run: as §2

[12] = system: lambsquarters (Chenopodium album); test: Test C preemergence
How it was run: as §2

[13] = system: morningglory (Ipomoea hederacea); test: Test C preemergence; settings: preemergence
How it was run: as §2

[14] = system: pigweed (Amaranthus retroflexus); test: Test C preemergence
How it was run: as §2

soybean (Glycine max) = test: Test C preemergence
How it was run: as §2

[15] = system: velvetleaf (Abutilon theophrasti); test: Test C preemergence
How it was run: as §2

[16] = system: woolly cupgrass (Eriochloa villosa); test: Test C preemergence
How it was run: as §2

[17] = system: yellow nutsedge (Cyperus esculentus); test: Test C preemergence
How it was run: as §2

[18] = Rate 125 g/ha, scale 0 to 100, 0 no effect, 100 complete control
[19] = Rate 500 g/ha, scale 0 to 100, 0 is no effect, 100 is complete control, 13 to 15 days
[20] = preemergence, Rate 62 g/ha, scale 0 to 100
[21] = preemergence, Rate 500 g/ha, visual evaluation after 12 to 14 days
[22] = preemergence, Rate 250 g/ha, scale 0 to 100, 0 no effect, 100 complete control

## CCOc1cccc(N2CCC(n3ccc(C(C)(C)C)n3)C2=O)c1 (centres unmarked) [Compound 130]
[1]; [18]
  Plant response rating, Blackgrass: 0
[1]; [19]
  Plant response rating, Blackgrass: 20
Corn (Zea mays) [2]; [18]
  Plant response rating, Corn: 0
Corn (Zea mays) [2]; [19]
  Plant response rating, Corn: 0
[3]
  Plant response rating, Velvetleaf: 0
[4]
  Plant response rating, Wheat: 0
Wild oat (Avena fatua)
  Plant response rating, Wild Oat: 0
Sunflower
  Plant response rating, Sunflower: 60
[5]; [18]
  Plant response rating, Surinam grass: 100
[5]; [20]
  Plant response rating, Surinam grass: 100
[5]; [21]
  Plant response rating (0 to 100), Surinam grass: 100
[5]; [22]
  Plant response rating, Surinam grass: 100
[6]; [18]
  Plant response rating, Bermudagrass: 100
[6]; [20]
  Plant response rating, Bermudagrass: 100
[6]; [21]
  Plant response rating (0 to 100 where 0 is no effect and 100 is complete control), Bermudagrass: 100
[6]; [22]
  Plant response rating, Bermudagrass: 100
Corn (Zea mays) [7]; [18]
  Plant response rating, Corn: 80
Corn (Zea mays) [7]; [20]
  Plant response rating, Corn: 40
Corn (Zea mays) [7]; [21]
  Plant response rating (0 to 100), Corn: 100
Corn (Zea mays) [7]; [22]
  Plant response rating, Corn: 90
[8]; [18]
  Plant response rating, Crabgrass: 100
[8]; [20]
  Plant response rating, Crabgrass: 100
[8]; [21]
  Plant response rating (0 to 100), Crabgrass: 100
[8]; [22]
  Plant response rating, Crabgrass: 100
[9]; [18]
  Plant response rating, Foxtail, Giant: 100
[9]; [20]
  Plant response rating, Foxtail, Giant: 90
[9]; [21]
  Plant response rating (0 to 100), Foxtail, Giant: 100
[9]; [22]
  Plant response rating, Foxtail, Giant: 100
[10]; [18]
  Plant response rating, Goosegrass: 100
[10]; [20]
  Plant response rating, Goosegrass: 100
[10]; [21]
  Plant response rating (0 to 100), Goosegrass: 100
[10]; [22]
  Plant response rating, Goosegrass: 100
[11]; [18]
  Plant response rating, Johnsongrass: 90
[11]; [20]
  Plant response rating, Johnsongrass: 0
[11]; [21]
  Plant response rating (0 to 100), Johnsongrass: 100
[11]; [22]
  Plant response rating, Johnsongrass: 100
[12]; [18]
  Plant response rating, Lambsquarters: 100
[12]; [20]
  Plant response rating, Lambsquarters: 100
[12]; [21]
  Plant response rating (0 to 100), Lambsquarters: 100
[12]; [22]
  Plant response rating, Lambsquarters: 100
[13]; Rate 62 g/ha, scale 0 to 100
  Plant response rating, Morningglory: 70
[13]; Rate 250 g/ha, scale 0 to 100, 0 no effect, 100 complete control
  Plant response rating, Morningglory: 90
[14]; [18]
  Plant response rating, Pigweed: 100
[14]; [20]
  Plant response rating, Pigweed: 100
[14]; [21]
  Plant response rating (0 to 100), Pigweed: 100
[14]; [22]
  Plant response rating, Pigweed: 100
Soybean (Glycine max); [18]
  Plant response rating, Soybean: 30
Soybean (Glycine max); [20]
  Plant response rating, Soybean: 30
Soybean (Glycine max); [21]
  Plant response rating (0 to 100), Soybean: 60
Soybean (Glycine max); [22]
  Plant response rating, Soybean: 40
[15]; [18]
  Plant response rating, Velvetleaf: 60
[15]; [20]
  Plant response rating, Velvetleaf: 60
[15]; [21]
  Plant response rating (0 to 100), Velvetleaf: 60
[15]; [22]
  Plant response rating, Velvetleaf: 60
[16]; [18]
  Plant response rating, Cupgrass, Woolly: 100
[16]; [20]
  Plant response rating, Cupgrass, Woolly: 100
[16]; [21]
  Plant response rating (0 to 100), Cupgrass, Woolly: 100
[16]; [22]
  Plant response rating, Cupgrass, Woolly: 100
[17]; [18]
  Plant response rating, Nutsedge: 80
[17]; [20]
  Plant response rating, Nutsedge: 30
[17]; [21]
  Plant response rating (0 to 100), Nutsedge: 100
[17]; [22]
  Plant response rating, Nutsedge: 100
